In data set [1] the target is T1, human RGS14 RGS-box (wild-type) (Homo sapiens, UniProt O43566).
T1 construct: human RGS14 RGS-box (aa 46–195 of UniProt O43566); host or cells: E. coli
T1 sequence (O43566 46-195): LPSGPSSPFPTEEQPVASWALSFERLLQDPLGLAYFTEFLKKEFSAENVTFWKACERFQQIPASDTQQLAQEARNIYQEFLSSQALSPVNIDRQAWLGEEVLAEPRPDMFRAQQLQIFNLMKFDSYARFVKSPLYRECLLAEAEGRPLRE
Put plainly: Transcreener GDP RGScreen fluorescence polarization assay of RGS14 RGS-box GAP activity on Gαi1(DM). The format is biochemical. Put shortly:
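Steady-state GTP hydrolysis by rate-altered double point-mutant Gαi1 was read by Transcreener GDP fluorescence polarization, with GTP conversion kept below 10% of maximum input. The E. coli-expressed, N-terminal His6-tagged wild-type RGS-boxes were RGS12 aa 695–843 and RGS14 aa 46–195.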
Background: Fluorescence polarisation rises when a labelled molecule tumbles more slowly, as on binding a larger partner.

In data set [2] the target is T2, cysteine-less RGS14 RGS-box protein (Homo sapiens, UniProt O43566, C100S/C183S).
T2 construct: human RGS14 RGS-box (aa 46–195 of UniProt O43566); host or cells: E. coli
T2 sequence (O43566 46-195 C100S/C183S): T1 sequence (O43566 46-195) with C55S, C138S
Kind of data set: Transcreener GDP RGScreen assay with cysteine-less RGS14 RGS-box. The format is biochemical. Particulars: range given jointly for cysteine-less RGS14 and RGS12 proteins; read-out: estimated IC50, cysteine-less RGS14 RGS-box. An excerpt:
Given the earlier experience with screening hit CCG-4986 being a covalent modifier of RGS4 cysteine residues ([35]), we sought to exclude protein-thiol reactivity as a potential mechanism of action of the active compounds derived from the AtomNet virtual screening effort ([55]) and SAR campaign follow-ups. To address this possibility and screen out thiol-reactive hits, cysteine-lacking versions of recombinant proteins spanning the RGS-boxes of RGS14 and RGS12 were purified from E. coli cultures.
Reagents and protocols for the fluorescence anisotropy-based Transcreener GDP RGScreen assay using a rate-altered, double point-mutant, recombinant Gαi1 protein have been extensively described previously ([43], [44]); reactions were always performed so that total GTP converted over the time course was consistently less than 10% of reaction maximum input. Specific methods for its application in assessing RGS14 and RGS12 GAP activity are summarized as follows. Open-reading frames (ORFs) encoding wild-type versions of the human RGS14 RGS-box (aa 46–195 of UniProt O43566) and human RGS12 RGS-box (aa 695–843 of UniProt O14924) were each sub-cloned in-frame with an N-terminal hexahistidine (His6) expression tag in the plasmid pET30a, expressed in E. coli cultures, and then purified by nickel-nitriloacetate (Ni-NTA) and size-exclusion (Superdex 200) column chromatographies by GenScript using previously described methods ([35]). […]
Supplementary Figure S5. […] (A,B) Recombinant, cysteine residue-lacking (“-cys”) RGS14 RGS-box protein (panel A) and cysteine residue-lacking RGS12 RGS-box protein ([…]) were both observed, in a concentration-dependent fashion (indicated in ng/µL by color), to increase steady-state GDP production by 0.5 ng/µL Gai1(DM) protein in a 20 µL final reaction volume, as measured by the Transcreener® GDP-detection RGScreen™ assay and detected by the change in polarization (ΔmP) at each indicated time point (“enz” = Gai1(DM) protein a.k.a. […]

The test system of data set [3] is THP-1 cell line. Kind of data set: Cytotoxicity assays (CytoTox-Glo, CytoTox 96). The class given is cell-based. Particulars: THP-1 cells, overnight, CytoTox-Glo and CytoTox 96. As for the experimental part:
To evaluate cellular toxicity of active compounds, we employed the immortalized human monocytic THP1-Dual cell line (InvivoGen) in two orthogonal cytotoxicity assays: ATP-dependent luminescence (CytoTox-Glo) and colorimetric lactate dehydrogenase (LDH) release (CytoTox 96). For each assay, compounds were serially diluted 2-fold starting at 250 μM and added to 96-well flat-bottom tissue culture plates (Thermo Scientific Nunc, Cat# 165306). THP1-Dual cells were then seeded at 20,000 to 30,000 cells per well in 100 μl RPMI 1640 media supplemented with 10% fetal bovine serum (Gibco). Plates were gently mixed and incubated overnight at 37 °C in a humidified 5% CO2 incubator. For the CytoTox-Glo assay (Promega, Cat# G9291), 50 μl of assay reagent was added to each well. Plates were mixed briefly, sealed, and incubated at room temperature for 15 min before reading luminescence on a TECAN Infinite M1000 Pro plate reader to quantify dead-cell signal. Subsequently, 50 μl of a digitonin-containing lysis solution was added to each well, followed by a second luminescence read after 15 min to assess total cell content. Percent cytotoxicity was calculated per manufacturer instructions. For the CytoTox 96 Non-Radioactive Cytotoxicity Assay (Promega, Cat# G1780), after overnight compound treatment, LDH release into the culture medium was measured by adding the provided substrate mix. Absorbance was read at 490 or 492 nm within 1 h of adding the stop solution. Assay optimization and data normalization were conducted according to the manufacturer’s technical manual.

Positions count from the first letter of the chain named. Entries after “also recorded” stand apart in the source; their conditions may differ.

For `COc1ccc(OCc2nnc3n2N=C(c2ccc(OC)c(OC)c2)CS3)cc1` [Z55660043, 6-(3,4-dimethoxyphenyl)-3-[(4-methoxy-phenoxy)methyl]-5H-[1,2,4]triazolo[3,4-b][1,3,4]thiadiazine], the “Ratio (RGS14 pIC50 / RGS12 pIC50)” value in data set [1] (values > 1.0 reflect RGS14 selectivity) is 0.95. Besides, the IC50 in data set [1] (wild-type RGS14 RGS-box GAP activity, Gαi1(DM), Transcreener GDP RGScreen, read-out: RGS14 pIC50 (converted)) was 2.29 µM; in data set [2] it was 10 to 19 µM. For the same compound, the cytotoxicity result in data set [3] is reported as “without measurable cytotoxicity; also recorded: no overt cytotoxicity”.

(Values after paper PMC12495443, “Developing inhibitors of the guanosine triphosphate hydrolysis accelerating activity of Regulator of G protein Signaling-14 [drawing 1]” (The Journal of Biological Chemistry, 2025).)
